Like-named read-outs stand apart in the source and are kept apart here.
Tests used:
Experiment in all cases: Kinase selectivity, scanMAX Kinase assay panel (DiscoverX), % control at 1 uM
Format in all cases: binding
[1] = target: T1, scanMAX Kinase assay panel (Homo sapiens, UniProt P10721); conditions: 1 uM, read-out: Percent Control (%)
T1 construct: purchased DiscoverX
In short: (§1)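 Read-out is percent of control, derived from the signal with compound relative to positive and negative controls: (compound − positive)/(negative − positive) × 100. Each enzyme received test drug at 1 uM in DMSO, and values under 35% count as active.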

[2] = target: T2, scanMAX Kinase assay panel (Homo sapiens, UniProt P53667); conditions: LIMK1; 1 uM; read-out: Percent Control (%)
T2 construct: purchased DiscoverX
In short: as §1

[3] = target: T3, scanMAX Kinase assay panel (Homo sapiens, UniProt P06239); conditions: LCK; 1 uM; read-out: Percent Control (%)
T3 construct: purchased DiscoverX
In short: as §1

[4] = target: T4, scanMAX Kinase assay panel (Homo sapiens, UniProt P22455); conditions: FGFR4; 1 uM; read-out: Percent Control (%)
T4 construct: purchased DiscoverX
In short: as §1

[5] = target: T5, scanMAX Kinase assay panel (Homo sapiens, UniProt P27448); conditions: MARK3; 1 uM; read-out: Percent Control (%)
T5 construct: purchased DiscoverX
In short: as §1

[6] = target: T6, scanMAX Kinase assay panel (Homo sapiens, UniProt P51813); conditions: BMX; 1 uM; read-out: Percent Control (%)
T6 construct: purchased DiscoverX
T6 sequence (P51813 1-675): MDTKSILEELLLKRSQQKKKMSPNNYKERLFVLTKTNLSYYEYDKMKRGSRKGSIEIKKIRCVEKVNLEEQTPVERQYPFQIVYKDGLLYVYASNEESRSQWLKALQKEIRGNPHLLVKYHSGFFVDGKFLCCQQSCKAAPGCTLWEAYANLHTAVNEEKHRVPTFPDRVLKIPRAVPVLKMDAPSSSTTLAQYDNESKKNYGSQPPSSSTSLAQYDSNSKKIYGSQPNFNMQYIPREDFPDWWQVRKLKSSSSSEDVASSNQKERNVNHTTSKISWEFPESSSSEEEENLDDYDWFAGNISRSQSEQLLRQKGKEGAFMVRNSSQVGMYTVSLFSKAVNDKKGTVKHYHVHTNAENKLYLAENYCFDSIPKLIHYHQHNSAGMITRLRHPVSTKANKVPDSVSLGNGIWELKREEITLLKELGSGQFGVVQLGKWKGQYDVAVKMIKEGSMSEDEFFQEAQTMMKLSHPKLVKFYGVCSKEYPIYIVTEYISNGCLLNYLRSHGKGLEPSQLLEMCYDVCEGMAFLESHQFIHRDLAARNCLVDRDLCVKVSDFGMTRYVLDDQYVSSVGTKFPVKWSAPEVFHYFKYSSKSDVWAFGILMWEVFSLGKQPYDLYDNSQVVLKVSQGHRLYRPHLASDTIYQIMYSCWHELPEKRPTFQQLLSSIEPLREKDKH
In short: as §1

[7] = target: T7, scanMAX Kinase assay panel (Homo sapiens, UniProt Q04912); conditions: MST1R; 1 uM; read-out: Percent Control (%)
T7 construct: purchased DiscoverX
In short: as §1

[8] = target: T8, scanMAX Kinase assay panel (Homo sapiens, UniProt P10721, D816V); conditions: KIT (D816V); 1 uM; read-out: Percent Control (%)
T8 construct: purchased DiscoverX
In short: as §1

[9] = target: T9, scanMAX Kinase assay panel (Homo sapiens, UniProt Q13873); conditions: BMPR2; 1 uM; read-out: Percent Control (%)
T9 construct: purchased DiscoverX
T9 sequence (Q13873 27-1038): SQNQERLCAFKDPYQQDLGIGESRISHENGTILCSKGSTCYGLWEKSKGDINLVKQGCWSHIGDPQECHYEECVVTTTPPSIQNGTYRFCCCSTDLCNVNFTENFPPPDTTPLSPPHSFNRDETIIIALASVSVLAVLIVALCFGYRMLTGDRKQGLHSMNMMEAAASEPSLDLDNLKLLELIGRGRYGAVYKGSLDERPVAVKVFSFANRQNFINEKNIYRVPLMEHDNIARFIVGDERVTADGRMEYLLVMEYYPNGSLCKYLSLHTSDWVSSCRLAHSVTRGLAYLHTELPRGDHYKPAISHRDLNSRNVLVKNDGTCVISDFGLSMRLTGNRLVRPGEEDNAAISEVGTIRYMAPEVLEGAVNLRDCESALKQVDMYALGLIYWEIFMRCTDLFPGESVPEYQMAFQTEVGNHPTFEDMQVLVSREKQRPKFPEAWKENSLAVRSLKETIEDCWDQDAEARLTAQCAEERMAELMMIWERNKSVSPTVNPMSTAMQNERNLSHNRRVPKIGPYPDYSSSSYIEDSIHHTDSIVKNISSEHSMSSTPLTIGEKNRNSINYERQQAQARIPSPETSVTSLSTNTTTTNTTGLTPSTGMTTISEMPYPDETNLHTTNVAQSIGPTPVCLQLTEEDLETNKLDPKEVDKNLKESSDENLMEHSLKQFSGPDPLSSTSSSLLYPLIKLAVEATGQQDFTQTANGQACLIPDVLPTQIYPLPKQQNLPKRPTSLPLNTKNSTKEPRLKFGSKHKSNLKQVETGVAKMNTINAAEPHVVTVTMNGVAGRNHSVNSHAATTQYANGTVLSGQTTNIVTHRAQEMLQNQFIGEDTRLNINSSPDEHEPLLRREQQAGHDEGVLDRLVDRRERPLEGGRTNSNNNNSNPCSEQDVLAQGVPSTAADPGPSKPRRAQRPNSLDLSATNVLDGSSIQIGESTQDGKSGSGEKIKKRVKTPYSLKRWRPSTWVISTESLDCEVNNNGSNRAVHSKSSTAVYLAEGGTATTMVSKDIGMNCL
In short: as §1

[10] = target: T10, scanMAX Kinase assay panel (Homo sapiens, UniProt P42336, I800L); conditions: PIK3CA (I800L); 1 uM; read-out: Percent Control (%)
T10 construct: purchased DiscoverX
In short: as §1

T7 sequence (Q04912 25-1400): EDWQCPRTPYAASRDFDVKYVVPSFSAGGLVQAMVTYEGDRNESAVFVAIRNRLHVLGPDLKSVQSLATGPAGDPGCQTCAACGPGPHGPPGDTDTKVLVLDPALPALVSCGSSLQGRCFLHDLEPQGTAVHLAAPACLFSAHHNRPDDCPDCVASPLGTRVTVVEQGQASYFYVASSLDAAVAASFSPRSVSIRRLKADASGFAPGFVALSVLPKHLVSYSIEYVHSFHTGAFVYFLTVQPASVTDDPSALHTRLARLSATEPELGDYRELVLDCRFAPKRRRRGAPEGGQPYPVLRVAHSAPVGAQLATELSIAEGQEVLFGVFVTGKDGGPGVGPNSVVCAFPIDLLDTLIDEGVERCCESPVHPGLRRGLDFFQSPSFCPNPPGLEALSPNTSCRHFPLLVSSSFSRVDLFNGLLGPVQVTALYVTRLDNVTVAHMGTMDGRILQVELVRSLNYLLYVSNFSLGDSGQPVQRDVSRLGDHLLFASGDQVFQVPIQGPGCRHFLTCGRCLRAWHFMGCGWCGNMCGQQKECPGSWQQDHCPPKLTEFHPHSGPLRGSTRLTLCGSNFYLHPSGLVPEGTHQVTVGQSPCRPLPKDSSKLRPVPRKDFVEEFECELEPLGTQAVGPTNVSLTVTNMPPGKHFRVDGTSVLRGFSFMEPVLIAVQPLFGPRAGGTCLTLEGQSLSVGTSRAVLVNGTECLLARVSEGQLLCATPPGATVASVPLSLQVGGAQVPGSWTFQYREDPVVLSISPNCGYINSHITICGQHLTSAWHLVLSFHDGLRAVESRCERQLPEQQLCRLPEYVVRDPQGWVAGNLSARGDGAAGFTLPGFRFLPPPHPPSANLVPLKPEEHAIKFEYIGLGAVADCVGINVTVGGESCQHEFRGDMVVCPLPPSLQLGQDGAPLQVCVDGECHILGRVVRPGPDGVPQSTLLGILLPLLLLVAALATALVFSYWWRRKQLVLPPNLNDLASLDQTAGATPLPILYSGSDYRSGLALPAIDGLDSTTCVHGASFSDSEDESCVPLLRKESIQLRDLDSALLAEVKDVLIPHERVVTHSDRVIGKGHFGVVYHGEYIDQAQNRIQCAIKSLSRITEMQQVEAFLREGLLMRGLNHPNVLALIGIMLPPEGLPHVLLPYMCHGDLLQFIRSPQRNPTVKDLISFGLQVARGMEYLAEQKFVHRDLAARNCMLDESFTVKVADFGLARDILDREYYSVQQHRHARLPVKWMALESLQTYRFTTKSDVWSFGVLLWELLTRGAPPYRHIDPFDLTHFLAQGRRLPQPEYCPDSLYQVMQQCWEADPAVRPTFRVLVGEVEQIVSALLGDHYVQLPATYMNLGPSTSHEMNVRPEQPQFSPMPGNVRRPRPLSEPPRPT
T1 sequence (P10721 26-976): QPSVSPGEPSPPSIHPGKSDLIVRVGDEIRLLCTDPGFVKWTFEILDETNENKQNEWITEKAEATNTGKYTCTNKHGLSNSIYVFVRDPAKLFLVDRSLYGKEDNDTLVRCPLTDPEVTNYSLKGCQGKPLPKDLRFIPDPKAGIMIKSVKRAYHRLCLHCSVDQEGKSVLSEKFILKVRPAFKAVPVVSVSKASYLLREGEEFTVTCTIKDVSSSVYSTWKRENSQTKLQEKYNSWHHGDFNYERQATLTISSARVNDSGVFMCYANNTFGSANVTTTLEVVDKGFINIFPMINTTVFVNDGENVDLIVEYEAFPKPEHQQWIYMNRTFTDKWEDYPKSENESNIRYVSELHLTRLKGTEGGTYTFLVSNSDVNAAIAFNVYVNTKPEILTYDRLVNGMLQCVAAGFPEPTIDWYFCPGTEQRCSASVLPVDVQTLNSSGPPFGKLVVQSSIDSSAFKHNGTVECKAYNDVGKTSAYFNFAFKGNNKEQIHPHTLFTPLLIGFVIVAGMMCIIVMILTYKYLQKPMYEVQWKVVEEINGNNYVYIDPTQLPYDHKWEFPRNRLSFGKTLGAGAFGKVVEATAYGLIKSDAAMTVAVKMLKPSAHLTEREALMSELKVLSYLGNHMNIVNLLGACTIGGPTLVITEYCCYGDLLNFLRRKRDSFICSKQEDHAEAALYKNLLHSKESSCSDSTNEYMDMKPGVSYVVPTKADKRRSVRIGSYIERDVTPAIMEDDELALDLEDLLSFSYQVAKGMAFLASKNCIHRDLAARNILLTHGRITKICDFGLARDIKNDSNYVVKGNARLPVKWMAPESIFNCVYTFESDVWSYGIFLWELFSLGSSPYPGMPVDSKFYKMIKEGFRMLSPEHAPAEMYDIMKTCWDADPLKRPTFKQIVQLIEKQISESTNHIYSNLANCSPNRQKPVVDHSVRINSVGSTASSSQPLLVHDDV
T5 sequence (P27448 whole entry): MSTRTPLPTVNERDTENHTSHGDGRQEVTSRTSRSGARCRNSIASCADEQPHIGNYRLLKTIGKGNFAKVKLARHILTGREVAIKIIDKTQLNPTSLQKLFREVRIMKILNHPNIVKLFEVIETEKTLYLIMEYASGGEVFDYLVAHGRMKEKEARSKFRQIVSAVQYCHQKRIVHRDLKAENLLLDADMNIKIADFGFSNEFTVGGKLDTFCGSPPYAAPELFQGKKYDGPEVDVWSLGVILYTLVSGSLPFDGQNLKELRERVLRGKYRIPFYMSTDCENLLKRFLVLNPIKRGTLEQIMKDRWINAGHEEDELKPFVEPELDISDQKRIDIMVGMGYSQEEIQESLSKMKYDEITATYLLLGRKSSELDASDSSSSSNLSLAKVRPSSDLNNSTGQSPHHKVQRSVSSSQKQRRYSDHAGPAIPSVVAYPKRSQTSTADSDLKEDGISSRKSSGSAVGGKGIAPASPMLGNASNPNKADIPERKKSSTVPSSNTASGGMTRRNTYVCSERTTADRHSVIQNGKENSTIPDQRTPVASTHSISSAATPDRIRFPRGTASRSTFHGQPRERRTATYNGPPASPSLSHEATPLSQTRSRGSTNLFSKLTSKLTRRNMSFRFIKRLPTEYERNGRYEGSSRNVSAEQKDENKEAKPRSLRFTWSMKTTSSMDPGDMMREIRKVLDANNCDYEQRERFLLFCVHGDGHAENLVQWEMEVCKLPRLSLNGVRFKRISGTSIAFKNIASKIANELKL
T2 sequence (P53667 whole entry): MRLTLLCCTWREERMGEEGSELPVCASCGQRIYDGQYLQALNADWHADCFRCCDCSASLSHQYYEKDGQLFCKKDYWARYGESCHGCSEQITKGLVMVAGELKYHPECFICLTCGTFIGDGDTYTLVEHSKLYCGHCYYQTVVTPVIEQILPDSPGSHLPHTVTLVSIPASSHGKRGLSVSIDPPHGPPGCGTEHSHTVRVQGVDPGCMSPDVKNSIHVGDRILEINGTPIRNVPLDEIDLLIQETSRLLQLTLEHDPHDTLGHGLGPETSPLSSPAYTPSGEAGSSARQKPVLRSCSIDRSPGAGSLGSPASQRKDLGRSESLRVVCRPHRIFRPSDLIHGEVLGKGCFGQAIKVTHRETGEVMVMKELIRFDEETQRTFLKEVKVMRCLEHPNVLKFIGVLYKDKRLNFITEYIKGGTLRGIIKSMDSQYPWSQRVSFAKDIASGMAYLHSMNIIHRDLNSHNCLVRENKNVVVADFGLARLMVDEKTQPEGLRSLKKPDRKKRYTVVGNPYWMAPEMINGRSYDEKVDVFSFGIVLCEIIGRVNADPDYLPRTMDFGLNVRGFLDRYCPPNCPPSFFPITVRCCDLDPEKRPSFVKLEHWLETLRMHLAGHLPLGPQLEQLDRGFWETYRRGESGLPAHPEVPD
T8 sequence (P10721 26-976 D816V): as the sequence (P10721 26-976) above, with D791V counted along it
T4 sequence (P22455 22-802): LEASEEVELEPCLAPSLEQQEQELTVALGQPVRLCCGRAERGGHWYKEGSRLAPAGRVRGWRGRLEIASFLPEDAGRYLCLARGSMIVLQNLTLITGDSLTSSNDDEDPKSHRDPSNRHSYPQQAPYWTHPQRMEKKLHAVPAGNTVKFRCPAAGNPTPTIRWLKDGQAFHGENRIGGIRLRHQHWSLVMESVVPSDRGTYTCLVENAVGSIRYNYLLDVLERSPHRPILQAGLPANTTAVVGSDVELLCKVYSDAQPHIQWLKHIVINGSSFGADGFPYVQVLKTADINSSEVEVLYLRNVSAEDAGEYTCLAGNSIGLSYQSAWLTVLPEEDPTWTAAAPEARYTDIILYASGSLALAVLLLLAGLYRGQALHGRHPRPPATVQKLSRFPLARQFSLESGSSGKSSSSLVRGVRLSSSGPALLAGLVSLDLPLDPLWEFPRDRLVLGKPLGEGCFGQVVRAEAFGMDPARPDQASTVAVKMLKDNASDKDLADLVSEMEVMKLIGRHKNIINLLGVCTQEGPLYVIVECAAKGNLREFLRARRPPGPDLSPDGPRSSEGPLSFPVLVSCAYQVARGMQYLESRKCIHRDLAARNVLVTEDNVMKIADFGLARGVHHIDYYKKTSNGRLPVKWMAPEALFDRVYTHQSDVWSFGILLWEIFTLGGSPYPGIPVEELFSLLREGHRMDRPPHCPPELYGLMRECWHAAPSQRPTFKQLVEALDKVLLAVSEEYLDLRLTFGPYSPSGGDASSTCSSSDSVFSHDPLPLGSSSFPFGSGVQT
T3 sequence (P06239 whole entry): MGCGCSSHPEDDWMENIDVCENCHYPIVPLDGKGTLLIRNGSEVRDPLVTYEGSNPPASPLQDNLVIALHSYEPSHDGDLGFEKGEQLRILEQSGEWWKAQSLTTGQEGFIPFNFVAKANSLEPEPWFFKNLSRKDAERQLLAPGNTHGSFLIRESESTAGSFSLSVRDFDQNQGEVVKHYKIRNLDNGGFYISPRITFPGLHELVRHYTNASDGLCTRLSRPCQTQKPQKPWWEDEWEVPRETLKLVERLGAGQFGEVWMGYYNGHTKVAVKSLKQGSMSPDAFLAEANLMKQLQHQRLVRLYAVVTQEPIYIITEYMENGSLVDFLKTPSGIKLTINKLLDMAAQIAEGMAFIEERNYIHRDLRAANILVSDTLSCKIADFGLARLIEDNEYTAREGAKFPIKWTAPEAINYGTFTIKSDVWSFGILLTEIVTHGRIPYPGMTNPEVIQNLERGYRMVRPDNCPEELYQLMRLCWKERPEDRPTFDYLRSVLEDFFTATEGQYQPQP

SMILES	remaining binding at 1 µM ([1]; KIT-autoinhibited)	remaining binding at 1 µM ([1]; KIT)	remaining binding at 1 µM [2]	remaining binding at 1 µM [3]	remaining binding at 1 µM [4]	remaining binding at 1 µM [5]	remaining binding at 1 µM [6]	remaining binding at 1 µM [7]	remaining binding at 1 µM [8]	remaining binding at 1 µM [9]	remaining binding at 1 µM [10]
Cc1ccc(NC(=O)C2(C(=O)Nc3ccc(F)cc3)CC2)cc1C#Cc1cnc2c(Nc3cnn(C(C)C)c3)cccn12 [Example 78]	93%	0%	100%	40%	100%	100%	96%	97%	61%	84%	92%
Cc1cn(-c2cc(NC(=O)c3ccc(C)c(C#Cc4cnc5c(Nc6cnn(C)c6)cccn45)c3)cc(C(F)(F)F)c2)cn1 [Example 12, 4-methyl-N-(3-(4-methyl-1H-imidazol-1-yl)-5-(trifluoromethyl)phenyl)-3-((8-((1-methyl-1H-pyrazol-4-yl)amino)imidazo[1,2-a]pyridin-3-yl)ethynyl)benzamide]	98%	1%	38%	0%	32%	94%	9%	87%	7%	100%	75%
Cc1ccc(C(=O)Nc2ccc(CN3CCN(C)CC3)c(C(F)(F)F)c2)cc1C#Cc1cnc2c(Nc3cnn(C)c3)cccn12 [Example 1, 4-methyl-3-((8-((1-methyl-1H-pyrazol-4-yl)amino)imidazo[1,2-a]pyridin-3-yl)ethynyl)-N-(4-((4-methylpiperazin-1-yl)methyl)-3-(trifluoromethyl)phenyl)benzamide]	77%	0%	4%	0%	0%	53%	3%	32%	3%	82%	80%

— US10870647B2, “Imidazopyridine derivative, method for preparing same, and pharmaceutical composition containing same as active ingredient for preventing or treating cancer” (DAEGU-GYEONGBUK MEDICAL INNOVATION FOUNDATION, priority 2016, dated 2020)
